According to the supplement of paper PMC10331698:
± gives the standard deviation of the averaged measurements.

Key:
Assay in all cases: level (log10 ratio to DMSO vehicle control); higher = higher biomarker level / cell amount than vehicle control
Details in all cases: in DMSO
[1] = compound: O=S(=O)(O)C(F)(F)C(F)(F)C(F)(F)C(F)(F)C(F)(F)C(F)(F)F [Perfluorohexanesulfonic acid]
Description: (§1)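 BioMAP Diversity Plus panel of 12 human primary cell co-culture systems (3C, 4H, LPS, SAg, BT, BF4T, BE3C, CASM3C, HDF3CGF, KF3CT, MyoF, Mphg). Compounds were added 1 h before stimulation and left for 24 h (MyoF 48 h; BT 72 h for soluble read-outs or 6 d for IgG). Biomarkers were read by ELISA, cytotoxicity by SRB, PBMC viability and proliferation by Alamar Blue. Each well value was divided by the mean of 8 DMSO control wells on the same plate and log10 transformed; duplicate blinded samples were tested at 4 concentrations.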

[2] = compound: O=C(O)C(F)(F)C(F)(F)C(F)(F)C(F)(F)F [Perfluoropentanoic acid]
Description: as §1

[3] = compound: C=CC(F)(F)C(F)(F)C(F)(F)C(F)(F)C(F)(F)C(F)(F)C(F)(F)C(F)(F)C=C [1,8-Divinylperfluorooctane]
Description: as §1

[4] = compound: O=C(O)C(F)(F)C(F)(F)C(F)(F)C(F)(F)C(F)(F)C(F)(F)C(F)(F)C(F)(F)C(F)(F)F [Perfluorodecanoic acid]
Description: as §1

[5] = compound: OCC(F)(F)OC(F)(F)C(F)(F)OC(F)(F)CO [1H,1H,8H,8H-Perfluoro-3,6-dioxaoctane-1,8-diol]
Description: as §1

[6] = compound: OCCC(F)(F)C(F)(F)C(F)(F)C(F)(F)C(F)(F)C(F)(F)F [6:2 Fluorotelomer alcohol]
Description: as §1

[7] = compound: O=C(O)C(F)(F)C(F)(F)OC(F)(F)F [Perfluoro-3-methoxypropanoic acid]
Description: as §1

Test System | level (log10) ([1]; 6700 nM) | level (log10) ([1]; 20000 nM) | level (log10) ([1]; 60000 nM) | level (log10) ([2]; 6700 nM) | level (log10) ([2]; 20000 nM) | level (log10) ([2]; 60000 nM) | level (log10) ([3]; 6700 nM) | level (log10) ([3]; 20000 nM) | level (log10) ([4]; 6700 nM) | level (log10) ([4]; 20000 nM) | level (log10) ([5]; 6700 nM) | level (log10) ([5]; 20000 nM) | level (log10) ([5]; 60000 nM) | level (log10) ([6]; 6700 nM) | level (log10) ([6]; 20000 nM) | level (log10) ([7]; 6700 nM) | level (log10) ([7]; 20000 nM) | level (log10) ([7]; 60000 nM)
3C:CD87/uPAR | -0.005 ± 0.027 | 0.0045 ± 0.011 | -0.0285 ± 0.013 | -0.003 ± 0.021 | -0.0045 ± 0.021 | -0.0105 ± 0.015 | -0.0065 ± 0.022 | 0.0105 ± 0.025 | 0.011 ± 0.02 | -0.01 ± 0.02 | -0.0025 ± 0.015 | 0.019 ± 0.018 | 0.0015 ± 0.0078 | -0.0205 ± 0.059 | -0.0095 ± 0.042 | -0.016 ± 0.05 | -0.021 ± 0.013 | 0.021 ± 0.021
3C:CXCL8/IL-8 | -0.004 ± 0.014 | 0.031 | 0.069 ± 0.024 | -0.0065 ± 0.0092 | -0.005 ± 0.027 | 0.03 ± 0.079 | -0.023 ± 0.018 | 0.011 ± 0.034 | 0.009 ± 0.013 | 0.0155 ± 0.021 | 0.013 ± 0.014 | 0.014 ± 0.04 | 0.021 ± 0.081 | -0.001 ± 0.0085 | -0.0105 ± 0.0092 | -0.017 ± 0.051 | -0.0255 ± 0.021 | 0.005 ± 0.037
3C:CXCL9/MIG | 0.0015 ± 0.0035 | 0.0035 ± 0.0092 | 0.007 ± 0.0085 | -0.0085 ± 0.018 | -0.0125 ± 0.03 | 0.0095 ± 0.028 | -0.0085 ± 0.0064 | 0.0025 ± 0.0092 | 0.002 | 0.0005 ± 0.0064 | -0.0025 ± 0.005 | -0.004 ± 0.0071 | 0.0015 ± 0.011 | 0.0045 ± 0.005 | -0.0145 ± 0.0035 | 0.0025 ± 0.0021 | -0.0065 ± 0.0078 | 0.0115 ± 0.00071
3C:HLA-DR | -0.0015 ± 0.015 | -0.0105 ± 0.023 | 0.0125 ± 0.047 | -0.0075 ± 0.0035 | 0.0015 ± 0.021 | 0.018 ± 0.037 | -0.0185 ± 0.028 | -0.007 ± 0.013 | -0.0035 ± 0.0021 | -0.006 ± 0.013 | -0.0185 ± 0.012 | -0.0095 ± 0.016 | 0.0005 ± 0.036 | 0.0095 ± 0.012 | -0.01 ± 0.021 | -0.0095 ± 0.015 | -0.043 ± 0.0085 | -0.014 ± 0.0028
3C:Proliferation | -0.042 ± 0.034 | -0.0525 ± 0.054 | -0.0305 ± 0.022 | -0.029 ± 0.028 | 0.011 | 0.0015 ± 0.046 | 0 ± 0.016 | 0 ± 0.013 | 0.0395 ± 0.032 | 0.0005 ± 0.044 | -0.066 ± 0.088 | 0.037 ± 0.035 | -0.0475 ± 0.064 | -0.0325 ± 0.066 | -0.015 ± 0.086 | -0.0295 ± 0.056 | -0.023 ± 0.03 | -0.0135 ± 0.037
3C:SRB | -0.011 ± 0.0085 | -0.014 ± 0.0014 | -0.0425 ± 0.019 | -0.0115 ± 0.013 | 0.001 ± 0.014 | 0.007 ± 0.018 | 0.0135 ± 0.0021 | 0.027 ± 0.0042 | 0.0095 ± 0.0021 | -0.005 ± 0.0042 | -0.01 ± 0.0085 | -0.0105 ± 0.0021 | -0.0255 ± 0.0021 | -0.006 ± 0.023 | 0.004 ± 0.028 | 0.001 ± 0.0014 | 0.0005 ± 0.019 | -0.004 ± 0.017
4H:CCL2/MCP-1 | -0.0205 ± 0.044 | -0.049 ± 0.031 | -0.0195 ± 0.054 | -0.0085 ± 0.052 | -0.047 ± 0.0042 | 0.014 ± 0.052 | -0.0315 ± 0.005 | 0.013 ± 0.035 | -0.014 ± 0.0057 | -0.0255 ± 0.03 | -0.037 ± 0.041 | -0.03 ± 0.013 | 0.008 ± 0.055 | 0.009 ± 0.0085 | -0.0065 ± 0.018 | -0.0045 ± 0.039 | -0.0095 ± 0.0092 | 0.003
4H:CCL26/Eotaxin-3 | -0.0105 ± 0.00071 | -0.001 ± 0.02 | -0.047 ± 0.018 | 0.0015 ± 0.0035 | -0.0185 ± 0.022 | 0.004 ± 0.05 | 0.013 ± 0.0085 | 0.0345 ± 0.013 | -0.0085 ± 0.011 | -0.0305 ± 0.011 | 0.0015 ± 0.0021 | 0.0015 ± 0.0092 | -0.0035 ± 0.00071 | 0.0545 ± 0.013 | 0.016 ± 0.04 | -0.013 ± 0.013 | -0.0085 ± 0.019 | 0.021 ± 0.0099
4H:CD62P/P-selectin | 0.008 ± 0.058 | 0.0555 ± 0.043 | 0.112 ± 0.066 | -0.0025 ± 0.067 | -0.023 ± 0.03 | -0.0285 ± 0.043 | -0.009 ± 0.018 | -0.035 ± 0.064 | 0.087 ± 0.0071 | 0.093 ± 0.033 | 0.0225 ± 0.091 | 0.034 ± 0.055 | 0.0615 ± 0.046 | 0.0165 ± 0.012 | -0.004 ± 0.02 | -0.004 ± 0.0057 | 0.005 ± 0.011 | 0.0065 ± 0.029
4H:CD87/uPAR | -0.002 ± 0.023 | 0.0065 ± 0.013 | -0.0055 ± 0.022 | -0.0435 ± 0.035 | -0.0355 ± 0.005 | -0.055 ± 0.0028 | -0.0125 ± 0.015 | 0.0215 ± 0.0064 | 0.0115 ± 0.021 | 0.0135 ± 0.0092 | 0.015 ± 0.044 | 0.0265 ± 0.0035 | 0.0065 ± 0.044 | -0.002 ± 0.033 | 0.001 ± 0.033 | -0.031 ± 0.044 | -0.0165 ± 0.047 | -0.0045 ± 0.029
4H:CD106/VCAM-1 | -0.013 ± 0.0042 | -0.023 ± 0.0042 | -0.012 ± 0.014 | 0.002 ± 0.038 | 0.0125 ± 0.0021 | 0.024 ± 0.013 | -0.012 ± 0.021 | 0.0035 ± 0.00071 | 0.0165 ± 0.0092 | 0.0185 ± 0.029 | 0.0145 ± 0.012 | -0.0105 ± 0.0021 | -0.0025 ± 0.015 | 0 ± 0.0057 | -0.002 ± 0.0057 | 0.0005 ± 0.016 | -0.005 ± 0.0085 | 0.007 ± 0.0057
4H:SRB | -0.0245 ± 0.015 | -0.025 ± 0.017 | -0.045 ± 0.023 | -0.0125 ± 0.00071 | -0.0065 ± 0.016 | -0.0025 ± 0.021 | 0.002 ± 0.0057 | 0.0125 ± 0.00071 | 0.003 ± 0.0099 | -0.0055 ± 0.00071 | -0.014 ± 0.0099 | -0.0195 ± 0.015 | -0.047 ± 0.0071 | -0.011 ± 0.024 | -0.006 ± 0.024 | -0.013 ± 0.0071 | -0.004 ± 0.0071 | 0.0015 ± 0.033
4H:VEGFR2 | -0.021 ± 0.037 | -0.0125 ± 0.052 | 0.03 ± 0.038 | 0.0065 ± 0.056 | 0.0025 ± 0.013 | 0.008 ± 0.025 | -0.0065 ± 0.056 | 0.053 ± 0.0085 | -0.007 ± 0.017 | -0.01 ± 0.02 | 0.011 ± 0.045 | 0.043 ± 0.044 | 0.0595 ± 0.049 | -0.058 ± 0.024 | -0.072 ± 0.078 | -0.085 ± 0.041 | -0.0895 ± 0.05 | -0.009 ± 0.093
BE3C:CD54/ICAM-1 | 0 ± 0.027 | 0.0025 ± 0.016 | 0.008 ± 0.013 | -0.006 ± 0.0085 | -0.0095 ± 0.00071 | 0.0055 ± 0.039 | 0.0085 ± 0.015 | 0.0055 ± 0.013 | 0.085 | -1.02 ± 0.012 | 0.0195 ± 0.013 | 0.0045 ± 0.015 | 0.0055 ± 0.022 | 0.0035 ± 0.018 | 0.001 ± 0.016 | 0.003 ± 0.013 | -0.0035 ± 0.0021 | 0.0065 ± 0.011
BE3C:CD87/uPAR | 0.0285 ± 0.00071 | 0.0015 ± 0.0035 | 0.035 ± 0.025 | -0.0035 ± 0.063 | -0.0235 ± 0.026 | 0.024 ± 0.0014 | 0.0045 ± 0.021 | -0.029 ± 0.025 | 0.05 ± 0.016 | -0.554 ± 0.011 | -0.001 ± 0.0099 | 0.0265 ± 0.016 | -0.0125 ± 0.005 | 0.005 ± 0.031 | -0.0155 ± 0.012 | -0.0225 ± 0.0092 | -0.012 ± 0.013 | 0.002 ± 0.041
BE3C:CXCL8/IL-8 | 0.017 ± 0.0071 | 0.0175 ± 0.023 | -0.032 ± 0.044 | -0.023 ± 0.0042 | -0.036 ± 0.017 | -0.0085 ± 0.057 | 0.0025 ± 0.021 | 0.01 ± 0.02 | -0.0545 ± 0.069 | -0.577 ± 0.023 | 0.0075 ± 0.005 | 0.001 ± 0.041 | -0.012 ± 0.045 | 0.01 ± 0.048 | -0.0085 ± 0.021 | -0.0445 ± 0.0064 | -0.031 ± 0.0028 | -0.007 ± 0.03
